Results on one compound are retold here after publication PMC13252604, “First Generation Proteolysis Targeting Chimeras (PROTACs) for the Treatment of Progeria” (Advanced Science, 2026).

Assay [1] has as its system Lmna^G609G/G609G mouse fibroblasts. Description: Cellular uptake by fluorescence microscopy. Conditions: intrinsic fluorescence, 5 μM. Format: cell-based. As for the experimental part: Supporting Figure S4. Cellular internalization of compounds 2 and 9. Live progeroid
LmnaG609G/G609G mouse fibroblasts were incubated with 5 μM of indicated compound and
images were taken every 5 minutes in a confocal fluorescence microscopy Olympus lx83
(lexc = 420 nm; lem = 530 nm). Shown image corresponds to 100 min incubation. Scale […]

Assay [2] deals with Lmna^G609G/G609G fibroblasts. As to the kind of experiment: Senescence-associated β-galactosidase activity in mouse progeroid cells. Format: cell-based. Conditions: 5 µM. On the procedure: Confocal fluorescence microscopy images are representative of 2 independent experiments. […] Representative cropped immunoblots are shown. […] MW, molecular weight (in kDa) markers. (C) PROTAC 2 decreases senescence‐associated β‐galactosidase (SA‐βgal) activity, interleukin (IL) 1α and p16 senescent markers. Lmna^G609G/G609G (G609G) or Lmna^+/+ (WT) fibroblasts were incubated with vehicle or compound 2 (5 µM). […] Data were analysed using one‐way ANOVA followed by Dunnett's post–hoc test. ^*, p < 0.05; ^**, p < 0.01, ^***, p < 0.001, ^****, p < 0.0001 vs G609G cells. […]
TBS-T and proteins were visualized by quimioluminiscence (GE Healthcare […]
SA β-galactosidase activity was determined by the FDG method. […]
ferrocyanide, 0.6 mL 5 M NaCl, 0.2 mL 0.2 M MgCl2, (all from Sigma Aldrich) and 6.2 mL of deionized water in a total volume of 20 mL] in the dark in a humidified incubator at 37 °C for 24 h without CO2 supply. Then, an equal volume of the supernatant of each well was transferred to a new 96-well plate for fluorescence measurement. The resultant production of fluorescein was measured using a FluoStar Optima instrument (BMG Labtech) with an excitation of 485 nm and emission at 535 nm. […]
Total RNA was extracted by RNAeasy Mini Kit (Qiagen) according to the manufacturer instructions and subsequently quantified using the NanoPhotometer N60 (Implen). […]

As for `CC1(C)Oc2cc3oc(=O)ccc3cc2C[C@@H]1OC(=O)CCCCCNc1cccc2c1C(=O)N(C1CCC(=O)NC1=O)C2=O` (some centres unmarked) [compound 2], in assay [1], the cellular uptake result is listed as “confirmed”. The “senescence‐associated β‐galactosidase (SA‐βgal) activity” value in assay [2] is listed as “significantly reduced”.
